These are literature values, as cited in patent US8933122B2, “Use of cationic surfactants as sporicidal agents” (Laboratorios Miret, S.A., priority 2008, dated 2015).

Each structure is given as a SMILES string.

Data set [1] has as its system Enterobacter aerogenes CECT 689. To be noted: Gram − Bacteria; cited from earlier work.
The conditions of data set [2]: rats; cited from earlier work.
The subject of data set [3] is Salmonella typhimurium ATCC16028. To be noted: Gram − Bacteria; cited from earlier work.
Data set [4] deals with Saccharomyces cerevisiae ATCC 9763. Conditions: Yeast; cited from earlier work.
In data set [5] the test system is Penicillium chrysogenum CECT 2802. To be noted: Fungi; cited from earlier work.

As for `CCCCCCCCCCCC(=O)N[C@@H](CCCN=C(N)N)C(=O)OCC.Cl` [LAE, ethyl ester of the lauramide of the arginine monohydrochloride], the M.I.C. in data set [1] is 32 ppm; in data set [3], 32 ppm; in data set [4], 32 ppm; in data set [5], 128 ppm. Also, the absorption and metabolism result in data set [2] was “fast absorption and metabolization into naturally-occurring amino acids and the fatty acid lauric acid, which are eventually excreted as carbon dioxide and urea”.
